Reference: patent US6451850B1, “Bio-chemical germanium complexes with high therapeutic efficiency and wide application spectrum” (priority 2001, dated 2002)
“And” between values parts separate entries of the source, which are not always exact repeats. Identical values can stand only once.

How the values were obtained:
[1] = Antiinflammatory effect, formalin paw edema (method by Ju. Strel'nikov); format: in vivo; conditions: white mice, into the stomach, dose equimolecular to 20 mg/kg of indometacin, two hours before formalin
Excerpt: Strel'nikov. […] Simultaneously antiinflammatory activity of indometacin was studied for comparison.

[2] = tested on: virus of herpes simplex (VHS) of the 2-nd antigenic type; assay: Experimental herpes genitalis of male guinea pigs, treatment with Virolex or its OGC complex; format: in vivo; conditions: for Duration of the Disease: treatment begun 48 hours after infecting
Excerpt: VIRUSES. The virus of herpes simplex (VHS) of the 2-nd antigenic type was implied in this work. Clinical symptoms of experimental herpes genitalis were registered daily before carrying out of treatment and were followed during the course of the disease.
The following parameters were used as criteria of infectious process danger: square and specific damage rate—presence of an edema, hyperemia, orchitis. Maximum distinction of each symptom made up 4 points. The present symptoms allow to buildup a scale and to express the course of the disease for each group under investigation from beginning of appearance of the first symptoms of the disease up to full disappearance of these. In this case index of therapeutic effect (ITE) is expressed with the following formula: [formula]
Treatment was began 48 hours after infecting when symptoms of the disease were distinct enough.
The first group included animals infected with VHS-2 and not subjected to treatment with any medicament.
The second group included animals infected with VHS-2 and subjected to treatment with 5 mg of Virolex once a day.
The third group included animals infected with VHS-2 and subjected to treatment with 5 mg of Virolex complex with OGC once a day.

[3] = guinea pigs infected with VHS-2, 5 mg once a day

COc1ccc2c(c1)c(CC(=O)O)c(C)n2C(=O)c1ccc(Cl)cc1 [Indometacin]
reduction of the edema compared to the control group [1]: 33.4%

Nc1nc2c(ncn2COCCO)c(=O)[nH]1.[OH][Ge]12[O]CCN(CC[O]1)CC[O]2 [Virolex OGC (R = OH), complex of 1-hydroxy-1-germa-2,8,9-trioxy-5-azatricyclo[3.3.3.0^1,5]undecane with Virolex]
convalescent earlier than in the second group (Virolex) ([2]; 5 mg once a day): 4.9 days | day of convalescence after infecting ([2]; 5 mg once a day): sixth | Duration of the Disease [2, 3]: 6,2 ± 1,8 Days | toxic effect on infected animals compared to pure Virolex ([2]; infected guinea pigs): decreased its toxic effect

Nc1nc2c(ncn2COCCO)c(=O)[nH]1 [Virolex, reference compound]
Total Index of Symptoms Distinction [2, 3]: 21 Points and 31,0 Points | Duration of the Disease [2, 3]: 11,1 ± 2,01 Days | Index of Therapeutic Effect (ITE) ([2]; guinea pigs infected with VHS-2, 5 mg once a day, versus control group): 58%
